Measurements reported in article PMC11219945, “Assessing genotoxic effects of chemotherapy agents by a robust in vitro assay based on mass spectrometric quantification of γ-H2AX in HepG2 cells” (Frontiers in Pharmacology, 2024).
Counter-ions that a name gives are not always drawn.

What was measured:
[1] = combination of in vitro mouse lymphoma, chromosomal aberration, and micronucleus tests; cited from earlier work
γ-H2AX in HepG2 cells [2] = assay: γ-H2AX MS assay, dose-effect relationship in HepG2 cells; details: for Genotoxicity in γ-H2AX MS assay: tested concentration 1 mM
Procedure: Human hepatoblastoma cells (HepG2) were cultivated in DMEM medium under standard conditions (37°C in a 5% CO2 atmosphere). The culturing medium was added with 10% FBS, 100 U/mL penicillin and 100 μg/mL streptomycin.
In accordance to our previous study, cells were exposed to the chemotherapeutic agent by adding a proper volume of chemotherapeutic agent stock solution to the fresh medium without serum. Controls were treated with DMSO (0.1%) in medium. Independent biological experiments with three technical replicates were conducted.
The cells were then treated with different chemotherapy agents in serum-free medium. For a dose-effect relationship experiment, cells were exposed to each agent at either of three concentrations with a 10-fold increase for 24 h. For the time-effect relationship experiment of nine tested chemotherapy agents, cells were exposed to selected chemotherapy agents at 0.5, 1, 2, 4, 8, 12, and 24 h, with the concentration of 100 μM. Independent biological experiments with three technical replicates were performed.
(§1) The quantification of γ-H2AX was carried out according to the previous report ([Qu et al., 2021]). In short, the cell clumps were collected after a certain period of cell culture and histones were obtained by acid extraction. After nuclear isolation, histone extraction, trypsin digestion in the solution, and desalting, the peptide sample from the carboxy terminus of H2AX was analyzed. LC–MS/MS analysis was conducted using a QTRAP 5500 (AB Sciex, Framingham, United States) with an ACQUITY UPLC system (Waters Co., Manchester, United Kingdom). Chromatographic separation was carried out with an ACQUITY UPLC BEH C18 column (100 mm × 2.1 mm, 1.7 μm). The column temperature was maintained at 40°C. A 10 μL sample aliquot was injected for analysis. Mobile phases A and B were 0.1% FA in distilled H2O and acetonitrile, respectively. […] The eluent composition was maintained for 2 min, after which the system returned to 1% B and was re-equilibrated for 2 min. The eluates in the first 1 min were switched to waste to prevent contaminating the ion source. The electrospray ionization source was operated in positive mode using nitrogen as the nebulizing gas. All experiments were performed independently in at least triplicate.
To this end, we firstly examined the cytotoxicity of 34 chemotherapy agents, all of which were already well classified in terms of diverse characteristics. These tested chemotherapy agents were serially diluted for exposure to check the effects on cell viability.

γ-H2AX in HepG2 cells [3] = assay: γ-H2AX time-effect relationship / DNA repair kinetics (k, t50) in HepG2 cells; type: cell-based, Human; set-up: k (speed of γ-H2AX descending): unit not given here; details: 100 μM, 0.5–8 h time-dependent kinetics
Procedure: The cells were then treated with different chemotherapy agents in serum-free medium. […] Independent biological experiments with three technical replicates were performed.
as §1, with “In” for “The quantification of γ-H2AX was carried out according to the previous report ([Qu et al., 2021]). In”
Here, we estimated k and t50 after exposure to nine representative chemotherapy agents based on the 0.5–8 h γ-H2AX time-dependent kinetics (Figure 5) and then obtained these parameters to describe each agent DSB repair capacity using the functions optim and optimize in R language.

SMILES	In vitro assays (genotoxicity) [1]	maximum γ-H2AX value within the selected concentration range (γ-H2AX in HepG2 cells [2]; human, 24 h)	other results
O=c1[nH]cc(F)c(=O)[nH]1 [5-fluorouracil]	+	5.2	
Sc1ncnc2nc[nH]c12 [6-mercaptopurine]	+	5.82	
CCC1(c2ccc(N)cc2)CCC(=O)NC1=O (stereo not drawn) [Aminoglutethimide]	−	2.9	
CC(C)(C#N)c1cc(Cn2cncn2)cc(C(C)(C)C#N)c1 [Anastrozole]	−		
N.N.O=C([O-])C1(C(=O)[O-])CCC1.[Pt+2] [Carboplatin]	+		maximum γ-H2AX value within the selected concentration range (γ-H2AX in HepG2 cells [2]; HepG2 cells, 24 h): 7.2; γ-H2AX MEC/MS (minimum effective concentration) (γ-H2AX in HepG2 cells [2]; HepG2 cells, 24 h exposure): ↑(100) µM; γ-H2AX MEC/MS (minimum effective concentration) (γ-H2AX in HepG2 cells [2]; HepG2 cells, 24 h exposure, listed as carboplatin): 100 µM
CCCCCCNC(=O)n1cc(F)c(=O)[nH]c1=O [Carmofur]	+	6.3	
O=NN(CCCl)C(=O)NCCCl [Carmustine]			k (speed of γ-H2AX descending) (γ-H2AX in HepG2 cells [3]): 0.169; t50 (time required for γ-H2AX to drop to half of the maximum value) (γ-H2AX in HepG2 cells [3]): 2.298 h; γ-H2AX MEC/MS (minimum effective concentration) (γ-H2AX in HepG2 cells [2]; HepG2 cells, 24 h exposure): ↑(0.01) µM; γ-H2AX MEC/MS (minimum effective concentration) (γ-H2AX in HepG2 cells [2]; HepG2 cells, 24 h exposure, listed as carmustine): 0.01 µM
O=P1(N(CCCl)CCCl)NCCCO1 (stereo not drawn) [Cyclophosphamide]	+		maximum γ-H2AX value within the selected concentration range (γ-H2AX in HepG2 cells [2]; HepG2 cells, 24 h): 7.4; Genotoxicity in γ-H2AX MS assay (γ-H2AX in HepG2 cells [2]; HepG2 cells, 24 h): genotoxic; γ-H2AX MEC/MS (minimum effective concentration) (γ-H2AX in HepG2 cells [2]; HepG2 cells, 24 h exposure): ↑(1000) µM
CN(C)/N=N/c1[nH]cnc1C(N)=O [Dacarbazine]	+	5.8	
COc1cccc2c1C(=O)c1c(O)c3c(c(O)c1C2=O)C[C@@](O)(C(=O)CO)C[C@@H]3O[C@H]1C[C@H](N)[C@@H](O)[C@H](C)O1 [Epirubicin hydrochloride]	+	18	γ-H2AX MEC/MS (minimum effective concentration) (γ-H2AX in HepG2 cells [2]; human, 24 h): 0.01 µM
COc1cc([C@@H]2c3cc4c(cc3[C@@H](O[C@@H]3O[C@@H]5CO[C@@H](C)O[C@H]5[C@H](O)[C@H]3O)[C@H]3COC(=O)[C@H]23)OCO4)cc(OC)c1O [Etoposide]	+		
CC[C@@]1(O)C(=O)OCc2c1cc1n(c2=O)Cc2c-1nc1cc(F)c(C)c3c1c2[C@@H](N)CC3 [Exatecan]	+	19.2	k (speed of γ-H2AX descending) (γ-H2AX in HepG2 cells [3]): 0.114; t50 (time required for γ-H2AX to drop to half of the maximum value) (γ-H2AX in HepG2 cells [3]): 3.925 h
C=C1C[C@@H]2[C@H](CC[C@]3(C)C(=O)CC[C@@H]23)[C@@]2(C)C=CC(=O)C=C12 [Exemestane]	−	3.1	
C[C@]12CCC(=O)C(O)=C1CC[C@@H]1[C@@H]2CC[C@]2(C)C(=O)CC[C@@H]12 [Formestane]	−		maximum γ-H2AX value within the selected concentration range (γ-H2AX in HepG2 cells [2]; HepG2 cells, 24 h): 3.2; Genotoxicity in γ-H2AX MS assay (γ-H2AX in HepG2 cells [2]; HepG2 cells, 24 h): none of the selected antitumor hormones exhibited genotoxicity
NC(=O)NO [Hydroxyurea]	+		MEC in γ-H2AX MS assay (γ-H2AX in HepG2 cells [2]): 1 mM
O=P1(NCCCl)OCCCN1CCCl (stereo not drawn) [Ifosfamide]			γ-H2AX MEC/MS (minimum effective concentration) (γ-H2AX in HepG2 cells [2]; HepG2 cells, 24 h exposure): ↑(1000) µM
N#Cc1ccc(C(c2ccc(C#N)cc2)n2cncn2)cc1 [Letrozole]	−	3.1	
O=C1c2c(O)ccc(O)c2C(=O)c2c(NCCNCCO)ccc(NCCNCCO)c21 [Mitoxantrone]	+		k (speed of γ-H2AX descending) (γ-H2AX in HepG2 cells [3]): 0.111; t50 (time required for γ-H2AX to drop to half of the maximum value) (γ-H2AX in HepG2 cells [3]): 7.999 h
Cc1ncc(CNC(=O)N(CCCl)N=O)c(N)n1 [Nimustine]			k (speed of γ-H2AX descending) (γ-H2AX in HepG2 cells [3]): 0.160; t50 (time required for γ-H2AX to drop to half of the maximum value) (γ-H2AX in HepG2 cells [3]): 2.465 h; γ-H2AX MEC/MS (minimum effective concentration) (γ-H2AX in HepG2 cells [2]; HepG2 cells, 24 h exposure): ↑(0.01) µM; γ-H2AX MEC/MS (minimum effective concentration) (γ-H2AX in HepG2 cells [2]; HepG2 cells, 24 h exposure, listed as nimustine): 0.01 µM
O=C1[O][Pt]2([NH][C@@H]3CCCC[C@H]3[NH]2)[O]C1=O [Oxaliplatin]	+		maximum γ-H2AX value within the selected concentration range (γ-H2AX in HepG2 cells [2]; HepG2 cells, 24 h): 7.51; γ-H2AX MEC/MS (minimum effective concentration) (γ-H2AX in HepG2 cells [2]; HepG2 cells, 24 h exposure): ↑(100) µM; γ-H2AX MEC/MS (minimum effective concentration) (γ-H2AX in HepG2 cells [2]; HepG2 cells, 24 h exposure, listed as oxaliplatin): 100 µM
CC(=O)O[C@H]1C(=O)[C@@]2(C)[C@H]([C@H](OC(=O)c3ccccc3)[C@]3(O)C[C@H](OC(=O)[C@H](O)[C@@H](NC(=O)c4ccccc4)c4ccccc4)C(C)=C1C3(C)C)[C@]1(OC(C)=O)CO[C@@H]1C[C@@H]2O [Paclitaxel]			Variation of γ-H2AX (γ-H2AX in HepG2 cells [2]; human, 24 h): no variations of γ-H2AX
COc1cccc2c1C(=O)c1c(O)c3c(c(O)c1C2=O)C[C@@](O)(C(=O)CO)C[C@@H]3O[C@H]1C[C@H](N)[C@H](O[C@@H]2CCCCO2)[C@H](C)O1 [Pirarubicin]	+		maximum γ-H2AX value within the selected concentration range (γ-H2AX in HepG2 cells [2]; HepG2 cells, 24 h): 22; γ-H2AX MEC/MS (minimum effective concentration) (γ-H2AX in HepG2 cells [2]; HepG2 cells, 24 h exposure): ↑(0.01) µM; γ-H2AX MEC/MS (minimum effective concentration) (γ-H2AX in HepG2 cells [2]; HepG2 cells, 24 h exposure, listed as pirarubicin): 0.01 µM
CC/C(=C(\c1ccccc1)c1ccc(OCCN(C)C)cc1)c1ccccc1 [Tamoxifen]	−	3.1	
O=c1[nH]c(=O)n(C2CCCO2)cc1F (stereo not drawn) [Tegafur]	+	7.2	k (speed of γ-H2AX descending) (γ-H2AX in HepG2 cells [3]): 3.015; t50 (time required for γ-H2AX to drop to half of the maximum value) (γ-H2AX in HepG2 cells [3]): 1.442 h; value of γ-H2AX (γ-H2AX in HepG2 cells [2]; human, 100 μM): 7.2
COc1cc([C@@H]2c3cc4c(cc3[C@@H](O[C@@H]3O[C@@H]5CO[C@@H](c6cccs6)O[C@H]5[C@H](O)[C@H]3O)[C@H]3COC(=O)[C@H]23)OCO4)cc(OC)c1O [Teniposide]	+	13.2	
Nc1nc2nc[nH]c2c(=S)[nH]1 [Thioguanine]	+	6.6	
CC[C@]1(O)C[C@H]2CN(CCc3c([nH]c4ccccc34)[C@@](C(=O)OC)(c3cc4c(cc3OC)N(C=O)[C@H]3[C@@](O)(C(=O)OC)[C@H](OC(C)=O)[C@]5(CC)C=CCN6CC[C@]43[C@@H]65)C2)C1 [Vincristine]		3	Variation of γ-H2AX (γ-H2AX in HepG2 cells [2]; human, 24 h): no variations of γ-H2AX
CCC1=C[C@@H]2CN(C1)Cc1c([nH]c3ccccc13)[C@@](C(=O)OC)(c1cc3c(cc1OC)N(C)[C@H]1[C@@](O)(C(=O)OC)[C@H](OC(C)=O)[C@]4(CC)C=CCN5CC[C@]31[C@@H]54)C2 [Vinorelbine]		3.3	Variation of γ-H2AX (γ-H2AX in HepG2 cells [2]; human, 24 h): no variations of γ-H2AX
